# PMC11187126, “Structure and dynamics of the pyroglutamylated RF-amide peptide QRFP receptor GPR103” (Nature Communications, 2024)
# Read-outs that look alike come from different tables or passages of the source. No end group written: not given here.
# Molecular target: T1, GPR103 F322^7.43A (Homo sapiens, UniProt Q96P65, F322A)
# T1 construct: we used human full-length QRFPR-encoding plasmids; expressed in transfected cells; host or cells: HEK293 cells (HEK293A in the flow cytometry section), pCAGGS vector
# T1 sequence (Q96P65 1-431 F322A): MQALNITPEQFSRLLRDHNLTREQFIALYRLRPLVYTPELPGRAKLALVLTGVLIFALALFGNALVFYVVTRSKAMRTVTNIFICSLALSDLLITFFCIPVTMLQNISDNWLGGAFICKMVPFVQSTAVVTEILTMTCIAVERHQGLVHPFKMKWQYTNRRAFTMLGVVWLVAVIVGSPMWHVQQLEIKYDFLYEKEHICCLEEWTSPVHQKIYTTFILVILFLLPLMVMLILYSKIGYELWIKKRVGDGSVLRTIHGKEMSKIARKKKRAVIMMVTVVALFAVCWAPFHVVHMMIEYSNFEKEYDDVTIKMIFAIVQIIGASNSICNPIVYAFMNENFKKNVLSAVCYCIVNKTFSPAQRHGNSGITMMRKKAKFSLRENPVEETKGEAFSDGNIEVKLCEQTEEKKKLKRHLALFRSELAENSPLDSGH
# Experiment: TGFα shedding assay; Exp. level WT (1:50)
# Format: cell-based
substance,measurement,setting,value
TSGPLGNLAEELNGYSRKKGGFSFRF-NH2 [QRFP26],Emax,Exp. #1,46.65 % WT
same,Emax,Exp. #2,35.03 % WT
same,Emax,Exp. #3,42.29 % WT
same,Emax,"mean, read-out: Emax",41.3%
same,EC50,n = 3,24.5 nM
same,Emax,"n = 3, read-out: Emax",42.7 ± 2.8%
